US8410075B2, “Mannich base N-oxide drugs” (Cascade Prodrug Inc., priority 2007, dated 2013)
Each block holds one molecule with its values, some of them ahead of it.

How the values were obtained:
[1] = Rearrangement of Mannich base N-oxides to O-substituted hydroxylamine isomers in solution (NMR); assay type: physicochemical; settings: for conversion to rearranged product 20: chloroform solution at RT for 72 h
Description: Examples 5-14 describe the synthesis of several Mannich bases (structures B and structures G in Chart 1) and the corresponding Mannich base N-oxides (structures C and H). In cases where R═H in structure A, the synthesis of the rearranged N-oxide isomer D is also described. […] However, when R═H in A, the Mannich base N-oxide C (R═H) undergoes rearrangement over time to the corresponding isomer D. Rearrangement tends to be very slow (several days) in aqueous solution but more rapid (a few hours) in CDCl3 and depends to some extent on which secondary amine was used to prepare the Mannich base. In one case, the hydrochloride salt (structure E) of a Mannich base N-oxide C where R═H was prepared. Mannich base N-oxide salt E was stable toward rearrangement.
N-(Dimethyl-N′-oxido-aminomethyl)-benzamide (13) and N-(Dimethyl-aminooxymethyl)-benzamide (14). Mannich base 12 (0.18 g, 0.001 mol) was dissolved in dichloromethane (5 mL) and then solid MCPBA (0.26 g, 0.0015 mol) was added to the stirred solution in an ice/water bath. After stirring for 20 min as the solution warmed to RT, the solvent was evaporated. The residue was chromatographed on a Chromatotron with dichloromethane/methanol as eluent. Evaporation of the eluent in the cold is accompanied by rearrangement, giving 150 mg (66%) of the mixture Mannich base N-oxide 13 (Rf˜0.2 in dichloromethane/methanol, 5:1) and the rearranged benzamide derivative 14 (Rf˜0.8 in dichloromethane/methanol, 5:1). A sample of the mixture was allowed to stand in CDCl3 at RT while it was monitored by ^1H NMR.
N-(Piperidin-1-oxido-1-yl-methyl)-benzamide (16) and N-(Piperidin-1-yloxymethyl)-benzamide (17). Mannich base 15 (0.2 g, 0.92 mmol) was dissolved in 2 mL of dichloromethane and then the solution was added to a stirred solution of MCPBA (0.24 g, 1. 14 mmol) in 2 mL of dichloromethane in an ice/water bath. After 5 min of stirring at RT, the solvent was evaporated and the residue was chromatographed on a Chromatotron with dichloromethane/methanol mixture, 5:1 to 5:3 as eluent. The desired fractions were combined and the solvents were evaporated to give Mannich base N-oxide 16 (0.15 g, 72% yield). […] The ^1H and ^13C NMR spectra of 17 are consistent with the assigned structure. […] It was difficult to get clean NMR spectra of 16 in any solvent.
N-(Morpholin-4-oxido-4-ylmethyl)-benzamide (19) and N-(Morpholin-4-oxido-4-ylmethyl)-benzamide Hydrochloride (21) and N-(Morpholin-4-yloxymethyl)-benzamide (20). Mannich base 18 (0.283 g, 1.3 mmol) was dissolved in dichloromethane (6 mL) and the solution was cooled in an ice/water bath. To this stirred solution MCPBA (0.3 g, 1.7 mmol) was added as a solid. After 10 min the reaction mixture was divided in half. The first half was evaporated and chromatographed on a Chromatotron with dichloromethane/methanol 5:0.5 to 5:2 as eluent giving mostly rearranged product 20 (0.1 g, 67%). […] The ^1H and ^13C NMR spectra of 20 were consistent with the assigned structure. APCI MS (m/z): Calcd. for 20, C12H17N2O3 (M+1) 236.1; Found 236.1 A sample of 20 was recrystallized from EtOAc/hexanes giving crystals that were subject to x-ray analysis.
The second half of the MCPBA oxidation solution was extracted with 1N HCl. The water layer was evaporated to dryness and then the residue was treated with dichloromethane and re-evaporated to give the N-oxide HCl salt 21 (0.11 g, 73%) as a waxy solid which was stable in CDCl3 solution for several days. The ^1H NMR spectra were consistent with the assigned structure. […] A sample of 21 was recrystallized from MeOH/Et2O giving crystals that were subject to x-ray analysis. APCI MS (m/z APCI MS (m/z): Calcd. 21 C12H17N2O3 (M+1) 236.1; Found 236.1.

[2] = observed by Sloan et al.; could not be isolated as a stable molecule; cited from earlier work
[3] = Stability of Mannich base N-oxides in D2O monitored by 1H NMR; assay type: physicochemical; settings: for at least several days
Procedure: The mixture of 3 and 4 was rechromatographed on a Chromatotron with 5:3:0.3 dichloromethane/methanol/ammonia as eluent to give 200 mg (22%) of the N^3 isomer 3 (faster moving isomer on TLC) which was pure by TLC, ^1H and ^19F NMR spectroscopy. The ^1H and ^19F NMR spectra of 3 (D2O) were consistent with the assigned structure. APCI MS (m/e): Calcd. for C9H12FN3O4 (M+H), 246.0; found (M+H) 246.0. Continued elution gave 140 mg (15% yield) of the N^1 isomer 4 (slower moving spot on TLC), which was pure by TLC, ^1H and ^19F NMR spectroscopy. APCI MS (m/e): Calcd. for C9H12FN3O4 (M+H), 246.0; found (M+H) 246.0. N-oxides 3, 4, and 5 were stable in D2O for at least several days as monitored by ^1H NMR spectroscopy. The structures of Mannich base N-oxides 3 and 4 were confirmed by single crystal x-ray analysis. Example 6

[4] = Reduction of 5-FU-derived Mannich base N-oxides with triphenylphosphine in CDCl3 and hydrolysis to 5-fluorouracil (1H and 19F NMR); assay type: physicochemical; settings: mixture of N-oxides 3 and 4, 2 equiv triphenylphosphine in CDCl3 at RT, 70-h time period
Procedure: Triphenylphosphine is known to reduce N-oxides to the corresponding amines See Gallos, J. K. and Argyropoulos, N. G. Synthesis 1:83-86 (1991). A mixture of N-oxides 3 and 4 was dissolved in CDCl3 and then treated with 2 equiv of triphenylphosphine in CDCl3 at RT and monitored by ^1H and ^19F NMR spectroscopy. According to the ^1H and ^19F NMR spectra, the N-oxides underwent reduction and spontaneous hydrolysis to 5-fluorouracil to the extent of about 90% over a 70-h time period. Thus, not only are the N-oxide groups reduced back to the corresponding Mannich bases, but also the Mannich bases undergo hydrolysis back to 5-FU in the presence of adventitious water.

[5] = Hydrolysis of Mannich bases; assay type: physicochemical
Procedure: We observed that indole-derived Mannich bases 30, 32 and 34, unlike the other Mannich bases herein described, were quite stable toward hydrolysis. For example, only 30% of Mannich base 34 was hydrolyzed after 80 h in D2O.

stability in CDCl3 solution ([1]; CDCl3 solution, several days): stable
conversion to rearranged product 20 [1]: no rearranged product 20 was formed
Molecule: Cl.O=C(NC[N+]1([O-])CCOCC1)c1ccccc1 [N-oxide HCl salt 21, N-(Morpholin-4-oxido-4-ylmethyl)-benzamide Hydrochloride]

Molecule: CN(C)Cn1cc(F)c(=O)n(CN(C)C)c1=O [Mannich base 6, 1,3-Bis-dimethylaminomethyl-5-fluoro-1H-pyrimidine-2,4-dione]
sensitivity toward hydrolysis [2]: very sensitive

conversion to the rearranged product ([1]; CDCl3 at RT, over several hours, 1H NMR): Essentially complete conversion
Molecule: N-(Dimethyl-N′-oxido-aminomethyl)-benzamide [Mannich base N-oxide 13]

stability in D2O [3]: stable
extent of reduction and spontaneous hydrolysis to 5-fluorouracil [4]: about 90%
Molecule: O=c1[nH]cc(F)c(=O)n1C[N+]1([O-])CCOCC1 [Mannich base N-oxide 3, 5-Fluoro-3-(4-oxido-morpholin-4-yl-methyl)-1H-pyrimidine-2,4-dione]

stability toward hydrolysis [5]: quite stable
Molecule: CN(C)Cn1ccc2ccccc21 [Mannich base 32, N-(Dimethylaminomethyl)-indole]

conversion to rearranged product 20 [1]: clean conversion
Molecule: O=C(NC[N+]1([O-])CCOCC1)c1ccccc1 [Mannich base N-oxide 19, N-(Morpholin-4-oxido-4-ylmethyl)-benzamide]

stability in D2O [3]: stable
extent of reduction and spontaneous hydrolysis to 5-fluorouracil [4]: about 90%
Molecule: O=c1[nH]c(=O)n(C[N+]2([O-])CCOCC2)cc1F [Mannich base N-oxide 4, 5-fluoro-1-(4-oxido-morpholin-4-yl-methyl)-1H-pyrimidine-2,4-dione]

stability in D2O [3]: stable
Molecule: O=c1c(F)cn(C[N+]2([O-])CCOCC2)c(=O)n1C[N+]1([O-])CCOCC1 [Mannich base N-oxide 5, 5-fluoro-1,3-bis-(4-oxido-morpholin-4-yl-methyl)-1H-pyrimidine-2,4-dione]

rearranged product 17 in 1H NMR spectrum ([1]; D2O): 10-20%
onset of rearrangement of 16 to 17 ([1]; after adding CDCl3): starts immediately
Molecule: O=C(NC[N+]1([O-])CCCCC1)c1ccccc1 [Mannich base N-oxide 16, N-(Piperidin-1-oxido-1-yl-methyl)-benzamide]

stability toward hydrolysis [5]: extreme sensitivity
Molecule: O=c1c(F)cn(CN2CCOCC2)c(=O)n1CN1CCOCC1 [Mannich base 2, 5-Fluoro-1,3-bis-morpholin-4-ylmethyl-1H-pyrimidine-2,4-dione]
